In PMC9298526, “RapD Is a Multimeric Calcium-Binding Protein That Interacts With the Rhizobium leguminosarum Biofilm Exopolysaccharide, Influencing the Polymer Lengths” (Frontiers in Microbiology, 2022):
Several values for one entry are separate records, joined by “and”; a condition that tells them apart may be missing. Identical values can stand only once.

T1: RapD (Rhizobium johnstonii, UniProt Q1MFT2)
T1 construct: gene RL2702
T1 sequence (Q1MFT2 1-277): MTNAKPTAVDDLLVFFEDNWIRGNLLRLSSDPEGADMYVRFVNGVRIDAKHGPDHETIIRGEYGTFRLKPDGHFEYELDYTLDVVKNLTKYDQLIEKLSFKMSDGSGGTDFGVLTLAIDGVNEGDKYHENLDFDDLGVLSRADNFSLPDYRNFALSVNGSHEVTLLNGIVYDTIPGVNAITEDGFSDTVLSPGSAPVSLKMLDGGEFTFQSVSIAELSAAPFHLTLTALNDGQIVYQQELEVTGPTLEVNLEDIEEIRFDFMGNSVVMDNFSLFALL

B1: Recombinant full-length RapD (natural protein, Rhizobium leguminosarum bv. viciae 3841, UniProt Q1MFT2 1-277, looked up)
chain: T1 sequence (Q1MFT2 1-277)
notes: N-terminal Ra/CHDL domain (aa 1-122) and C-terminal region (aa 123-277); Cloned NdeI-NotI into pET-22b; The protein was decalcified with EGTA before calcium was added; also called Apo-RapD; RapD-Apo; source: E. coli BL21 (DE3) carrying pET22brapD, purified (Ni-NTA HiTrap Chelating, dialysis against 10 mM EGTA, Superdex 200); not shown: His tag (from the vector pET-22b)

Legend:
RapD = target: T1, RapD; experiment: binding inhibition assay (ELISA): RapD to immobilized EPS; settings: with calcium (TBS, 1 mM CaCl2); room temperature; galactose 0-300 mM preincubated with RapD; proteinase K treated Rlv 3841 EPS immobilized; indirect competition read-out
[1] = target: the molecule itself; experiment: SEC with 90° static light scattering (SLS) and refractometer; Superdex 200, 100 ul of RapD at 1 mg/ml pre-incubated with 1.25 mM CaCl2, 20 mM Tris-HCl, 0.15 M NaCl, pH 8, 0.4 ml/min, 20°C, BSA as standard

Molecule | partial inhibition of EPS binding (RapD) | stoichiometry N [1]
OC[C@H]1OC(O)[C@H](O)[C@@H](O)[C@H]1O (some centres unmarked) [galactose] | RapD interaction with the EPS was partially inhibited in the presence of high concentrations of galactose | 
B1 |  | 3 and 2
